The source made the active and inactive calls. The calls are words filed in the database; no cut-off is given here.
Legend:
[1] = Selectivity index, ratio of antiproliferative activity against human WI38 cells to antiproliferative activity against human Y79 cells; parameters: species or system WI-38
[2] = Antiproliferative activity against human WI38 cells assessed as inhibition of cell proliferation at 10 uM incubated for 72 hrs by Cell-titer-Glo cell viability assay; format: cell-based, WI-38
[3] = Selectivity index, ratio of antiproliferative activity against mouse NIH/3T3 cells to antiproliferative activity against human HeLa cells
[4] = target: Transient receptor potential cation channel subfamily M member 7 (Mus musculus, UniProt Q923J1); test: Inhibition of N-terminal Flag-tagged mouse TRPM7 expressed in HEK293T cells assessed as reduction in whole cell currents by whole-cell patch clamp assay; format: cell-based, HEK-293T
Sequence of Transient receptor potential cation channel subfamily M member 7 (Q923J1 whole entry): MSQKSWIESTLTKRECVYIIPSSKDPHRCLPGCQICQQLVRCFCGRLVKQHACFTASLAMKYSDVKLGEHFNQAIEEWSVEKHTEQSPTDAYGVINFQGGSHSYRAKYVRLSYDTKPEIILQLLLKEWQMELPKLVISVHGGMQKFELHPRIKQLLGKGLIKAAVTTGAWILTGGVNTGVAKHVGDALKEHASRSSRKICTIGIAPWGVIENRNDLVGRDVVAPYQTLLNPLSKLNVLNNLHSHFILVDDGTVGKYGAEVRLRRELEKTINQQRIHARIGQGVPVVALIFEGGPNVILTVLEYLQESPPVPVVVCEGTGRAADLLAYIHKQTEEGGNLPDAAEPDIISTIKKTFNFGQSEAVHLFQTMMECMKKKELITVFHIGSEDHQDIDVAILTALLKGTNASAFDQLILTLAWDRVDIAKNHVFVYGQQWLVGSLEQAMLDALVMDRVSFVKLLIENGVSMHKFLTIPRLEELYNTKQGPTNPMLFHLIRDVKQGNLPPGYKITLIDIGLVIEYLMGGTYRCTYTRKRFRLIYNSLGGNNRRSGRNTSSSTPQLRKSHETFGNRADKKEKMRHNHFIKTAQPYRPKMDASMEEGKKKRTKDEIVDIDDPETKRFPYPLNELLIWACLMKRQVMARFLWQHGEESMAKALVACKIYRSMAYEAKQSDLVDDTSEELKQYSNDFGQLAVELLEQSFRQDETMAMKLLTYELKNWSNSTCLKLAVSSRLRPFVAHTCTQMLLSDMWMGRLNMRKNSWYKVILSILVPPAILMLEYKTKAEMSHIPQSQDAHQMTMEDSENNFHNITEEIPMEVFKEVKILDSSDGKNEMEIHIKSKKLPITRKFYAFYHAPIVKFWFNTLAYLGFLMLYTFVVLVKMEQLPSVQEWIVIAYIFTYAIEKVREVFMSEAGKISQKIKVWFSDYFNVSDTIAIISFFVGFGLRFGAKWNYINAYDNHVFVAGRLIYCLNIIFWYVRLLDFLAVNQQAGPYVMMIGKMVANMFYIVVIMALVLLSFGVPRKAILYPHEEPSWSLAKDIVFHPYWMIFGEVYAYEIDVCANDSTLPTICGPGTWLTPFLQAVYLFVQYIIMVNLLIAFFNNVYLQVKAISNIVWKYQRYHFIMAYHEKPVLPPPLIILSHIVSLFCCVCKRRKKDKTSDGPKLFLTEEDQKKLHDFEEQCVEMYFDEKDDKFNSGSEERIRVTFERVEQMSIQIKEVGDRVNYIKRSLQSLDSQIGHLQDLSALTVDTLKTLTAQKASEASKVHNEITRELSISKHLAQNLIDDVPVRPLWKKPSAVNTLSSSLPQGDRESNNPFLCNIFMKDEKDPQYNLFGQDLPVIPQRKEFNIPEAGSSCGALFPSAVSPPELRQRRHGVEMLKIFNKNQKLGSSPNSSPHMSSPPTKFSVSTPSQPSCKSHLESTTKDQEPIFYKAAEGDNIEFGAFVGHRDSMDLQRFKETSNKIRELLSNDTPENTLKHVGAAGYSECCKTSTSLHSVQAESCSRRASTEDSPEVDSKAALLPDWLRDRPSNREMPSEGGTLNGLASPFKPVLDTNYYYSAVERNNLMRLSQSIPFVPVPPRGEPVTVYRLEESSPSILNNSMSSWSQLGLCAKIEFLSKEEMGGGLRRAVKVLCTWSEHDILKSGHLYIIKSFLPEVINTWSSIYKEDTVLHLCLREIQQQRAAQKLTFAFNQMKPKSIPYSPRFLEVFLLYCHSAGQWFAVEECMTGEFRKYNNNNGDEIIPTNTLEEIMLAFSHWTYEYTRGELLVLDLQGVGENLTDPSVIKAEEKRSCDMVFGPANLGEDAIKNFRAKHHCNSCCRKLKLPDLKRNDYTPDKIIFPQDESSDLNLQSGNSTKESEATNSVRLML

[5] = Antiproliferative activity against mouse NIH/3T3 cells assessed as inhibition of cell proliferation at 10 uM incubated for 72 hrs by Cell-titer-Glo cell viability assay; format: cell-based, NIH3T3
[6] = Antiproliferative activity against human WERI cells assessed as inhibition of cell proliferation at 10 uM by propidium iodide uptake based fluoroskan microplate reader analysis; format: functional
HeLa = test: Antiproliferative activity against human HeLa cells assessed as inhibition of cell proliferation at 10 uM incubated for 72 hrs by Cell-titer-Glo cell viability assay; format: functional
[7] = Antiproliferative activity against human WERI cells assessed as inhibition of cell proliferation at 5 uM by propidium iodide uptake based fluoroskan microplate reader analysis; format: functional
[8] = Selectivity index, ratio of antiproliferative activity against human MCF10A cells to antiproliferative activity against human MCF7 cells; parameters: species or system MCF-10A
[9] = Antiproliferative activity against mouse B16F10 cells assessed as inhibition of cell proliferation at 10 uM incubated for 72 hrs by Cell-titer-Glo cell viability assay; format: functional; settings: B16-F10, 72 h
MCF7 = test: Antiproliferative activity against human MCF7 cells assessed as inhibition of cell proliferation at 10 uM incubated for 72 hrs by Cell-titer-Glo cell viability assay; format: functional; settings: MCF7, 72 h
[10] = Antiproliferative activity against human DMS53 cells assessed as inhibition of cell proliferation at 10 uM incubated for 72 hrs by Cell-titer-Glo cell viability assay; format: functional; settings: DMS-53, 72 h
[11] = Selectivity index, ratio of antiproliferative activity against human MCF10A cells to antiproliferative activity against human DMS53 cells; parameters: species or system MCF-10A
[12] = Antiproliferative activity against human WERI cells assessed as inhibition of cell proliferation by propidium iodide uptake based fluoroskan microplate reader analysis; format: functional
[13] = Selectivity index, ratio of antiproliferative activity against human WI38 cells to antiproliferative activity against human DMS53 cells; parameters: species or system DMS-53
[14] = Selectivity index, ratio of antiproliferative activity against mouse NIH/3T3 cells to antiproliferative activity against human MCF7 cells
Y79 = test: Antiproliferative activity against human Y79 cells assessed as inhibition of cell proliferation at 10 uM incubated for 72 hrs by Cell-titer-Glo cell viability assay; format: functional; settings: Y79, 72 h
[15] = Selectivity index, ratio of antiproliferative activity against mouse NIH/3T3 cells to antiproliferative activity against mouse B16F10 cells; parameters: species or system B16-F10
[16] = Selectivity index, ratio of antiproliferative activity against human WI38 cells to antiproliferative activity against human HeLa cells
[17] = Selectivity index, ratio of antiproliferative activity against mouse NIH/3T3 cells to antiproliferative activity against human DMS53 cells; parameters: species or system DMS-53
[18] = Antiproliferative activity against human WERI cells assessed as inhibition of cell proliferation by measuring normalized ratio of propidium iodide uptake at 5 uM by propidium iodide uptake based fluoroskan microplate reader analysis; format: functional
[19] = Selectivity index, ratio of antiproliferative activity against human WI38 cells to antiproliferative activity against mouse B16F10 cells; parameters: species or system B16-F10
[20] = Selectivity index, ratio of antiproliferative activity against human WI38 cells to antiproliferative activity against human MCF7 cells
[21] = Selectivity index, ratio of antiproliferative activity against mouse NIH/3T3 cells to antiproliferative activity against human Y79 cells
[22] = Selectivity index, ratio of antiproliferative activity against human MCF10A cells to antiproliferative activity against human HeLa cells
[23] = Antiproliferative activity against human MCF10A cells assessed as inhibition of cell proliferation at 10 uM incubated for 72 hrs by Cell-titer-Glo cell viability assay; format: cell-based, MCF-10A
[24] = Antiproliferative activity against human WERI cells assessed as inhibition of cell proliferation by measuring normalized ratio of propidium iodide uptake at 10 uM by propidium iodide uptake based fluoroskan microplate reader analysis; format: functional
[25] = Selectivity index, ratio of antiproliferative activity against human MCF10A cells to antiproliferative activity against mouse B16F10 cells; parameters: species or system MCF-10A
[26] = Selectivity index, ratio of antiproliferative activity against human MCF10A cells to antiproliferative activity against human Y79 cells; parameters: species or system MCF-10A
Rattus norvegicus [27] = test: Neuroprotection in Sprague-Dawley rat model of fluid percussion injury assessed as reduction in neuronal damage dosed 1 hr after injury by TTC staining based oscilloscopy; format: functional, organism-based
Rattus norvegicus [28] = organism: Rattus norvegicus; test: Neuroprotection in Sprague-Dawley rat model of fluid percussion injury assessed as activity parameters by rotarod performance test relative to untreated control; format: functional, organism-based
Rattus norvegicus [29] = test: Neuroprotection in Sprague-Dawley rat model of fluid percussion injury assessed as improvement in learning and memory tasks by measuring latency to reach platform dosed 1 hr after lateral fluid percussion injury by Morris water maze test; format: functional, organism-based
Rattus norvegicus [30] = organism: Rattus norvegicus; test: Neuroprotection in Sprague-Dawley rat model of fluid percussion injury assessed as increase in balance by measuring mean latency measured on first day post injury by rotarod performance test relative to untreated control; format: functional
Rattus norvegicus [31] = organism: Rattus norvegicus; test: Neuroprotection in Sprague-Dawley rat model of fluid percussion injury assessed as distance traveled by rotarod performance test relative to untreated control; format: functional, organism-based
Cerebral cortex neuron = test: Neuroprotection in CD1 mouse primary cortical neuron assessed as reduction in stretch injury-induced cell death at 2 to 10 uM dosed 1 hr after injury by propidium iodide straining based; format: functional
Rattus norvegicus [32] = test: Neuroprotection in Sprague-Dawley rat model of fluid percussion injury assessed as reduction in neuronal brain damage dosed before injury at 2 to 10 uM by TTC staining based oscilloscopy; format: functional, organism-based

SMILES | Selectivity Index [1] | inhibition at 72 h, 10 µM [2] [%] | Selectivity Index [3] | inhibition at 72 h, 10 µM [5] [%] | inhibition at 10 µM (HeLa) [%] | Selectivity Index [8] | inhibition at 10 µM [9] [%] | inhibition at 10 µM (MCF7) [%] | inhibition at 10 µM [10] [%] | Selectivity Index [11] | IC50 [12] [µM] | Selectivity Index [13] | Selectivity Index [14] | inhibition at 10 µM (Y79) [%] | Selectivity Index [15] | Selectivity Index [16] | Selectivity Index [17] | Ratio [18] | Selectivity Index [19] | Selectivity Index [20] | further results
COc1ccc2c(c1)CCN=C2c1sc2ccccc2c1Cl | 20 | > 40 | 20 | > 40 | > 40 | 20 | > 40 | > 40 | > 40 | 20 | 1.19 | 20 | 20 | > 40 | 20 | 20 | 20 | 0.06 | 20 | 20 | IC50 [4]: 5 µM; inhibition at 10 µM [6]: 42%; inhibition at 5 µM [7]: 18%; Selectivity Index [21]: 20; Selectivity Index [22]: 20; inhibition at 72 h, 10 µM [23]: > 40%; Ratio [24]: 0.035; Selectivity Index [25]: 20; Selectivity Index [26]: 20
Cc1c(Cc2ccc(Cl)c(Cl)c2)c(=O)oc2cc(O)ccc12 |  |  |  |  |  |  |  |  |  |  |  |  |  |  |  |  |  |  |  |  | Activity (Rattus norvegicus [27]): Active; Activity (Rattus norvegicus [28]): Active; Activity (Rattus norvegicus [29]): Active; fold change (FC) (Rattus norvegicus [30]): 2; Activity (Rattus norvegicus [31]): Active; Activity (Cerebral cortex neuron): Active; Activity (Rattus norvegicus [32]): Active
COc1ccc(C(=O)c2sc3ccccc3c2Cl)cc1 | 20 | > 40 | 20 | > 40 | > 40 | 20 | > 40 | > 40 | > 40 | 20 | 4 | 20 | 20 | > 40 | 20 | 20 | 20 | 0.305 | 20 | 20 | Selectivity Index [21]: 20; Selectivity Index [22]: 20; inhibition at 72 h, 10 µM [23]: > 40%; Ratio [24]: 0.063; Selectivity Index [25]: 20; Selectivity Index [26]: 20

— ChEMBL document CHEMBL3714762, “Agents and methods for treating ischemic and other diseases” (2012)
